In patent US20210038559A1, “CANNABINOIDS AND DERIVATIVES FOR PROMOTING IMMUNOGENICITY OF TUMOR AND INFECTED CELLS” (priority 2018, published 2021):

What follows are molecules tested on MHC class I expression on COLO 205 cells (assay: MHC class I expression on COLO 205 cells, 24 hours, flow cytometry (W6/32)). Details: COLO 205, 0.004 ng/mL.
Description: FIG. 2A-2F. […] Cells were treated for 24 hours and cell surface MHC class I expression was measured by flow cytometry.
Cannabigerol was also tested for its capacity to induce MHC class I expression in a human colorectal carcinoma cell line, COLO 205. The cells were treated with either 25 μM or 50 μM cannabigerol for 24 hours. Fluorophor (Alexa Fluor 488)-conjugated W6/32 antibody (Thermo Fisher) was used in a flow cytometry assay to quantitate MHC class I expression. […] Cannabigerol is only one of many cannabinoid-like molecules with potential biopharmaceutical activity. […] COLO 205 cells were treated with up to 40 μM of the cannabinoids 1-5 presented in Tables 1 and 2 and evaluated for cell surface MHC class I expression as described above for cannabigerol.

Molecule	Fold Induction
Interferon-γ: a natural cytokine known to stimulate MHC class I expression in many mammalian cells (protein, UniProt P01579 24-161, looked up) Interferon gamma: QDPYVKEAENLKKYFNAGHSDVADNGTLFLGILKNWKEESDRKIMQSQIVSFYFKLFKNFKDDQSIQKSVETIKEDMNVKFFNSNKKKRDDFEKLTNYSVTDLNVQRKAIHELIQVMAELSPAAKTGKRKRSQMLFRG	0.98

Same assay, conditions: COLO 205, 0.040 ng/mL

Molecule	Fold Induction
Interferon-γ: a natural cytokine known to stimulate MHC class I expression in many mammalian cells (protein, UniProt P01579 24-161, looked up) Interferon gamma: QDPYVKEAENLKKYFNAGHSDVADNGTLFLGILKNWKEESDRKIMQSQIVSFYFKLFKNFKDDQSIQKSVETIKEDMNVKFFNSNKKKRDDFEKLTNYSVTDLNVQRKAIHELIQVMAELSPAAKTGKRKRSQMLFRG	2.07

Same assay, conditions: COLO 205, 1.000 ng/mL

Molecule	Fold Induction
Interferon-γ: a natural cytokine known to stimulate MHC class I expression in many mammalian cells (protein, UniProt P01579 24-161, looked up) Interferon gamma: QDPYVKEAENLKKYFNAGHSDVADNGTLFLGILKNWKEESDRKIMQSQIVSFYFKLFKNFKDDQSIQKSVETIKEDMNVKFFNSNKKKRDDFEKLTNYSVTDLNVQRKAIHELIQVMAELSPAAKTGKRKRSQMLFRG	3.99

Each molecule was assayed on MHC-I expression by COLO 205 cells (assay: cells). Details: not given.
Type: cell-based, human
Description: A panel of synthetic cannabinoids (Cayman Chemical, #9002891) was tested for MHC class I-inducing capability in COLO 205 cells as described above. COLO 205 cells were treated with the compounds at a concentration of 35 μM and evaluated for cell surface MHC class I expression after 48 hours. Cells were harvested, stained with MHC-I mAb W6/32 (Thermo Fisher). MHC-I expression was determined by flow cytometry.

Molecule	Induction Fold [Fold]
CCCCCn1cc(C(=O)NC23CC4CC(CC(C4)C2)C3)c2ccccc21 [Example 108, 1-pentyl-N-tricyclo[3.3.1.1]dec-1-yl-1H-indole-3-carboxamide]	2.38

Same assay, conditions: Homo sapiens, COLO 205, 48 h, MHC-I expression, COLO 205 cells, compounds at 35 μM, 48 hours, flow cytometry (W6/32); read-out: Induction Fold

Molecule	fold induction at 35 µM
CCC(C)Cn1cc(C(=O)c2ccc3ccccc3c2)c2ccccc21 (centres unmarked) [Example 271, (1-(2-methylbutyl)-1H-indol-3-yl)(naphthalen-2-yl)-methanone]	1.54
CCC(F)CCn1cc(C(=O)c2ccc(C)c3ccccc23)c2ccccc21 (centres unmarked) [Example 174, (1-(3-fluoropentyl)-1H-indol-3-yl)(4-methylnaphthalen-1-yl)methanone]	1.96
CCCCCn1nc(C(=O)N[C@H](C(N)=O)C(C)C)c2ccccc21 [Example 100, (S)-N-(1-amino-3-methyl-1-oxobutan-2-yl)-1-pentyl-1H-indazole-3-carboxamide]	2.43
COC(=O)[C@@H](NC(=O)c1nn(CCCC(C)F)c2ccccc12)C(C)(C)C (stereo partly drawn) [Example 84, methyl (2S)-2-(1-(4-fluoropentyl)-1H-indazole-3-carboxamido)-3,3-dimethylbutanoate]	2.53
O=C(NC1C2CC3CC(C2)CC1C3)c1nn(CC2CCOCC2)c2ccccc12 (single isomer, unassigned) [Example 352, N-(adamantan-2-yl)-1-((tetrahydro-2H-pyran-4-yl)methyl)-1H-indazole-3-carboxamide]	1.07
CCC(C)n1cc(C(=O)c2cccc3ccccc23)c2ccccc21 (centres unmarked) [Example 127, (1-(sec-butyl)-1H-indol-3-yl)(naphthalen-1-yl)methanone]	2.29
CC(C)[C@H](NC(=O)c1cn(CC2CCCCC2)c2ccccc12)C(N)=O [Example 96, (S)-N-(1-amino-3-methyl-1-oxobutan-2-yl)-1-(cyclohexylmethyl)-1H-indole-3-carboxamide]	2.44
CCCC(F)Cn1nc(C(=O)NC(C(N)=O)C(C)C)c2ccccc21 (centres unmarked) [Example 317, N-(1-amino-3-methyl-1-oxobutan-2-yl)-1-(2-fluoropentyl)-1H-indazole-3-carboxamide]	1.31
CCCC(F)Cn1cc(C(=O)Nc2cccc3ccccc23)c2ccccc21 (centres unmarked) [Example 296, 1-(2-fluoropentyl)-N-(naphthalen-1-yl)-1H-indole-3-carboxamide]	1.43
CCCC(F)Cn1cc(C(=O)c2ccc(C)c3ccccc23)c2ccccc21 (centres unmarked) [Example 359, (1-(2-fluoropentyl)-1H-indol-3-yl)(4-methylnaphthalen-1-yl)methanone]	1
CCCCCn1cc(C(=O)Cc2ccccc2Cl)c2ccccc21 [Example 190, 2-(2-chlorophenyl)-1-(1-pentyl-1H-indol-3-yl)-ethanone]	1.89
CC(F)CCCn1nc(C(=O)NC(C(N)=O)C(C)C)c2ccccc21 (centres unmarked) [Example 293, N-(1-amino-3-methyl-1-oxobutan-2-yl)-1-(4-fluoropentyl)-1H-indazole-3-carboxamide]	1.43
O=C(Oc1cccc2cnccc12)c1cn(CCCCCF)c2ccccc12 [Example 105, isoquinolin-5-yl 1-(5-fluoropentyl)-1H-indole-3-carboxylate]	2.4
O=C(Oc1cncc2ccccc12)c1cn(CCCCCF)c2ccccc12 [Example 19, isoquinolin-4-yl 1-(5-fluoropentyl)-1H-indole-3-carboxylate]	4.06
CCCCCn1cc(C(=O)c2ccc(C)c3ccccc23)c2ccccc21 [Example 211, (4-methyl-1-naphthalenyl)(1-pentyl-1H-indol-3-yl)-methanone]	1.83
O=C(c1cn(CCCCCF)c2ccccc12)N1CCCC1 [Example 215, (1-(5-fluoropentyl)-1H-indol-3-yl)(pyrrolidin-1-yl)methanone]	1.8
CCC(C)Cn1cc(C(=O)c2cccc3ccccc23)c2ccccc21 (centres unmarked) [Example 58, N-(2-methylbutyl)-3-(1-naphthoyl)-indole]	2.86
CCCCCn1cccc1C(=O)c1cccc2ccccc12 [Example 178, naphthalen-1-yl(1-pentyl-1H-pyrrol-2-yl)methanone]	1.94
CC1(C)C(C(=O)c2nn(CCCCCF)c3ccccc23)C1(C)C [Example 185, (1-(5-fluoropentyl)-1H-indazol-3-yl)(2,2,3,3-tetramethylcyclopropyl)methanone]	1.9
CC(F)CCCn1cc(C(=O)Nc2cccc3ccccc23)c2ccccc21 (centres unmarked) [Example 339, 1-(4-fluoropentyl)-N-(naphthalen-1-yl)-1H-indole-3-carboxamide]	1.19
CN1CCCCC(n2cc(C(=O)C3C(C)(C)C3(C)C)c3ccccc32)C1 (centres unmarked) [Example 305, (1-(1-methylazepan-3-yl)-1H-indol-3-yl)(2,2,3,3-tetramethylcyclopropyl)methanone]	1.38
CCCCCn1cc(C(=O)c2ccc3ccccc3c2)c2ccccc21 [Example 259, 2-naphthalenyl(1-pentyl-1H-indol-3-yl)-methanone]	1.58
CC(C)Cn1cc(C(=O)c2cccc3ccccc23)c2ccccc21 [Example 41, (1-isobutyl-1H-indol-3-yl)(naphthalen-1-yl)methanone]	3.11
O=C(c1ccc2c(c1)c1ccccc1n2CCCCCF)c1cccc2ccccc12 [Example 318, (9-(5-fluoropentyl)-9H-carbazol-3-yl)(naphthalen-1-yl)methanone]	1.31

Same assay, conditions: MHC-I expression, COLO 205 cells, compounds at 35 μM, 48 hours, flow cytometry (W6/32)

Molecule	Induction Fold [Fold]
O=C(NC12CC3CC(CC(C3)C1)C2)c1cn(CCCCCF)c2ccccc12 [Example 319, 1-(5-fluoropentyl)-N-tricyclo[3.3.1.13,7] dec-1-yl-1H-indole-3-carboxamide]	1.31
O=C(NC12CC3CC(CC(C3)C1)C2)c1nn(CCCCCF)c2ccccc12 [Example 309, N-((3s,5s,7s)-adamantan-1-yl)-1-(5-fluoropentyl)-1H-indazole-3-carboxamide]	1.37
CN1CCCCC(n2cc(C(=O)C34CC5CC(CC(C5)C3)C4)c3ccccc32)C1 (centres unmarked) [Example 93, (3,5,7)-adamantan-1-yl(1-(1-methylazepan-3-yl)-1H-indol-3-yl)methanone]	2.46
COC(=O)[C@@H](NC(=O)c1nn(CCCCCF)c2ccccc12)C(C)C [Example 279, N-[[1-(5-fluoropentyl)-1H-indazol-3-yl]carbonyl]-L-valine, methyl ester]	1.49

These molecules were tested on MHC-I expression on COLO 205 cells (assay: Phytocannabinoid MHC-I induction on COLO 205 cells, 0-100 μM, 48 hours). Details: COLO 205, endogenous cannabinoids.
Description: FIG. 4. Cell surface MHC class I expression was measured by flow cytometry (MFI).
Phytocannabinoids were tested for MHC-I-inducing activity on COLO 205 cells. Each cannabinoid was tested at a concentration range of 0-100 μM. […] “ND” indicates not determined.

Molecule	MHC-I expression induction
CCCCC/C=C\C/C=C\C/C=C\C/C=C\CCCC(=O)NCCO [AEA, N-arachidonoylethanolamine, reference compound]	do not induce MHC-I expression

Same assay, conditions: Homo sapiens, COLO 205, 48 h

Molecule	EC50 [µM]
CCCc1cc(O)c2c(c1)OC(C)(C)c1ccc(C)cc1-2 [Example 385, 6,6,9-trimethyl-3-propyl-6H-dibenzo[b,d]pyran-1-ol]	20
CCCc1cc(O)c2c(c1)OC(C)(CCC=C(C)C)C=C2 (centres unmarked) [Example 381, 2-methyl-2-(4-methylpent-3-enyl)-7-propylchromen-5-ol]	32
CC(C)=CCC/C(C)=C/Cc1c(O)cc(C)cc1O [Example 388, 2-[(2E)-3,7-dimethyl-2,6-octadien-1-yl]-5-methyl-1,3-benzenediol]	36
CCCCCc1cc(OC)c2c(c1)OC(C)(C)c1ccc(C)cc1-2 [Example 387, 1-methoxy-6,6,9-trimethyl-3-pentyl-6H-dibenzo[b,d]pyran]	30

Same assay, conditions: MHC-I expression on COLO 205 cells, 0-100 μM, 48 hours, relative to control cells treated only with buffer

Molecule	Fold Induction [Fold]
CCCCCc1cc2c3c(c1)OC(C)(C)C1CCC(C)(CC31)O2 (stereo not drawn) [Example 382, (6aα,9β,10aα)-6a,7,8,9,10,10a-hexahydro-6,6,9-trimethyl-3-pentyl-1,9-epoxy-6H-dibenzo[b,d]pyran]	1.3
CCCc1cc(O)c2c(c1)OC(C)(C)c1ccc(C)cc1-2 [Example 385, 6,6,9-trimethyl-3-propyl-6H-dibenzo[b,d]pyran-1-ol]	3.9
CCCc1cc(O)c2c(c1)OC(C)(CCC=C(C)C)C=C2 (centres unmarked) [Example 381, 2-methyl-2-(4-methylpent-3-enyl)-7-propylchromen-5-ol]	3.3
CC(C)=CCC/C(C)=C/Cc1c(O)cc(C)c(C(=O)O)c1O [Example 389, 3-[(2E)-3,7-dimethyl-2,6-octadien-1-yl]-2,4-dihydroxy-6-methyl-benzoic acid]	2.6
CC(C)=CCC/C(C)=C/Cc1c(O)cc(C)cc1O [Example 388, 2-[(2E)-3,7-dimethyl-2,6-octadien-1-yl]-5-methyl-1,3-benzenediol]	2.7
CCCCCc1cc(OC)c2c(c1)OC(C)(C)c1ccc(C)cc1-2 [Example 387, 1-methoxy-6,6,9-trimethyl-3-pentyl-6H-dibenzo[b,d]pyran]	2.3

Same assay, conditions: read-out: EC50 of MHC-I induction; COLO 205, 48 hours

Molecule	EC50 [µM]
C=C(C)[C@@H]1CCC(C)=C[C@H]1c1c(O)cc(CCCCC)cc1O [cannabidiol (CBD)]	10
